Experimental data taken from patent publication US12427146B2, “C-terminal SRC kinase inhibitors” (INVENTISBIO CO., LTD., priority 2018, dated 2025).
pIC50: −log10 of the molar value.

Tests used:
LCK protein = LCK protein (Homo sapiens (Human), UniProt P06239); assay: LCK Inhibition Assay; format: biochemical
Method: Test compound was dissolved in DMSO at 10 mM. 45 uL of compound was transfer into a 384-well compound source plate (LABCYTE cat #P-05525) and serially diluted at 1:3 ratio to create a 11-point dilutions. The same volume of DMSO was adopted as high control. 20 nL of these compounds DMSO dilutes were dispensed into a new 384-well assay plate by Echo 550. LCK protein (0.50 nM, Cama Biosciences, cat #08-170), florescent labeled substrate FLPeptide4 (2 μM, PerkinElmer, cat #760348) was prepared in kinase assay buffer (50 mM HEPES (pH 7.5), 10 mM MgCl2, 0.01% Brij-35, 2 mM DTT and 0.005 mg/ml BSA). 15 uL of kinase assay buffer containing LCK protein and substrate was transferred to assay plate and incubate at RT for 30 minutes. Kinase assay buffer supplemented with substrate peptides was employed as low control to monitor the background. 400 μM ATP was prepared in kinase assay buffer and 5 μL of ATP solution was added to each well to start the reaction. The assay plate was incubated at 25° C. for 90 minutes and the reaction was stopped by adding 40 μL of 0.5 M EDTA.
(§1) Phosphorylated fluorescent-tagged peptides were differentiated from non-phosphorylated peptides by separating using Caliper EZ Reader II and the detection was directly converted to conversion ratio.
(§2) For estimation of IC50, the % substrate conversion values are transformed to % Inhibition Ratio by applying the following equation: […]

CSK protein = CSK protein (Homo sapiens (Human), UniProt P41240); assay: CSK Inhibition Assay; format: biochemical
Method: Test compound was dissolved in DMSO at 10 mM. 45 uL of compound was transferred into a 384-well compound source plate (LABCYTE cat #P-05525) and serially diluted at 1:3 ratio to create a 11-point dilutions. The same volume of DMSO was adopted as high control. 20 nL of these compounds DMSO dilutes were dispensed into a new 384-well assay plate by Echo 550. […] 15 uL of kinase assay buffer containing CSK protein and substrate was transferred to assay plate and incubated at RT for 30 minutes. Kinase assay buffer supplemented with substrate peptides was employed as low control to monitor the background. 4 μM of ATP was prepared in kinase assay buffer and 5 μL of ATP solution was added to each well to start the reaction. The assay plate was incubated at 25° C. for 90 minutes and the reaction was stopped by adding 40 μL of 0.5 M EDTA.
as §1, §2

Sequence of LCK protein (P06239 whole entry): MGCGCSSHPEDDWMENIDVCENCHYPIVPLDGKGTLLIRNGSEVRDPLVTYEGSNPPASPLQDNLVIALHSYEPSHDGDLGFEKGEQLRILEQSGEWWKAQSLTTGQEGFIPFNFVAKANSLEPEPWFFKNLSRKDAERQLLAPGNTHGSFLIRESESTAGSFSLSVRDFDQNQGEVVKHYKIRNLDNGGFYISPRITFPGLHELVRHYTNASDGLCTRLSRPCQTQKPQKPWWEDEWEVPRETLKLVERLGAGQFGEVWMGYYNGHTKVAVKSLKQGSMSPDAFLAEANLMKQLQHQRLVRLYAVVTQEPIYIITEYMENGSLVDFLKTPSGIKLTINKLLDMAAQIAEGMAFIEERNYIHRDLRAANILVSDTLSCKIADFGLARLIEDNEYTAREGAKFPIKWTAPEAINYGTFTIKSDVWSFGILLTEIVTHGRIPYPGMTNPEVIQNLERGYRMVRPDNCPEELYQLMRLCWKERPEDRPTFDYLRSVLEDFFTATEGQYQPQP

| pIC50 (LCK protein) | pIC50 (CSK protein) | selectivity over LCK (CSK protein; CSK inhibition over LCK) | Structure (SMILES) |
| --- | --- | --- | --- |
| < 6.00 | 6.48 |  | Nc1nccc(-c2sc(-c3ccc(C(F)(F)F)cc3)nc2-c2cccc(NS(=O)(=O)c3c(F)cccc3F)c2F)n1 [Compound 4] |
| < 6.00 | 7.20 |  | COc1ccc(-c2nc(-c3cccc(NS(=O)(=O)c4c(F)cccc4F)c3F)c(-c3ccnc(N)n3)s2)cc1 [Compound 5] |
| < 6.00 | 7.30 |  | COc1cc(N2CCOCC2)ccc1Nc1nccc(-c2sc(-c3ccccc3)nc2-c2cccc(NS(=O)(=O)c3c(F)cccc3F)c2F)n1 [Compound 9] |
| 6.00 to 7.00 | 7.52 |  | CCn1cc(-c2nc(-c3cccc(NS(=O)(=O)c4c(F)cccc4F)c3F)c(-c3ccnc(N)n3)s2)cn1 [Compound 10] |
| < 6.00 | 6.99 |  | Nc1nccc(-c2sc(-c3cncc(Cl)c3)nc2-c2cccc(NS(=O)(=O)c3c(F)cccc3F)c2F)n1 [Compound 11] |
| < 6.00 | 7.21 |  | Nc1nccc(-c2sc(-c3ccc(F)cn3)nc2-c2cccc(NS(=O)(=O)c3c(F)cccc3F)c2F)n1 [Compound 12] |
| < 6.00 | 7.29 |  | Cc1ccc(-c2nc(-c3cccc(NS(=O)(=O)c4c(F)cccc4F)c3F)c(-c3ccnc(N)n3)s2)nn1 [Compound 13] |
| < 6.00 | 7.26 |  | Nc1nccc(-c2sc(-c3ccc(F)cc3)nc2-c2cccc(NS(=O)(=O)c3c(F)cccc3F)c2F)n1 [Compound 14] |
| < 6.00 | 7.29 |  | Nc1nccc(-c2sc(-c3cccc(F)c3)nc2-c2cccc(NS(=O)(=O)c3c(F)cccc3F)c2F)n1 [Compound 15] |
| < 6.00 | 7.20 |  | COC(=O)N[C@@H](C)CNc1nccc(-c2sc(-c3ccccc3)nc2-c2cccc(NS(=O)(=O)c3c(F)cccc3F)c2F)n1 [Compound 16] |
| < 6.00 | 7.60 |  | Nc1nccc(-c2sc(-c3cncc(F)c3)nc2-c2cccc(NS(=O)(=O)c3c(F)cccc3F)c2F)n1 [Compound 17] |
| < 6.00 | 6.84 |  | Nc1nccc(-c2sc(-c3ccccc3)nc2-c2cccc(NS(=O)(=O)c3c(F)cccc3F)c2)n1 [Compound 18] |
| 6.00 to 7.00 | 7.55 |  | COc1cc(NS(=O)(=O)c2c(F)cccc2F)cc(-c2nc(-c3ccccc3)sc2-c2ccnc(N)n2)c1 [Compound 19] |
| 6.00 to 7.00 |  |  | COc1cc(NS(=O)(=O)c2c(F)cccc2F)cc(-c2nc(-c3cncc(F)c3)sc2-c2ccnc(N)n2)c1 [Compound 21] |
| < 6.00 | 6.30 |  | Nc1nccc(-c2sc(-c3ccccc3)nc2-c2cccc(NS(=O)(=O)c3ccccc3)c2F)n1 [Compound 24] |
|  | < 5.00 |  | Nc1nccc(-c2sc(-c3ccccc3)nc2-c2cccc(NS(=O)(=O)c3c(F)cccc3F)n2)n1 [Compound 26] |
| < 6.00 | 7.69 |  | Nc1nccc(-c2sc(-c3cncnc3)nc2-c2cccc(NS(=O)(=O)c3c(F)cccc3F)c2F)n1 [Compound 29] |
| 6.00 to 7.00 | 7.39 |  | COc1ccc(-c2nc(-c3cccc(NS(=O)(=O)c4c(F)cccc4F)c3F)c(-c3ccnc(N)n3)s2)nc1 [Compound 30] |
|  | < 5.00 |  | O=S(=O)(Nc1cccc(-c2nc(-c3ccc(F)cn3)sc2-c2ccnc(NC3CCCC3)n2)c1F)c1c(F)cccc1F [Compound 31] |
| 6.00 to 7.00 | 8.54 |  | COc1ccc(Nc2nccc(-c3sc(-c4ccc(F)cn4)nc3-c3cccc(NS(=O)(=O)c4c(F)cccc4F)c3F)n2)cn1 [Compound 32] |
| < 6.00 | 6.23 |  | COc1ccccc1Nc1nccc(-c2sc(-c3ccc(F)cn3)nc2-c2cccc(NS(=O)(=O)c3c(F)cccc3F)c2F)n1 [Compound 33] |
| < 6.00 | 7.09 |  | Cc1cc(F)c(S(=O)(=O)Nc2cccc(-c3nc(-c4ccccc4)sc3-c3ccnc(N)n3)c2F)c(F)c1 [Compound 35] |
| < 6.00 | 7.32 |  | Cc1ccnc(-c2nc(-c3cccc(NS(=O)(=O)c4c(F)cccc4F)c3F)c(-c3ccnc(N)n3)s2)c1 [Compound 40] |
| < 6.00 | 7.06 |  | CC(=O)N[C@@H](C)CNc1nccc(-c2sc(-c3ccccc3)nc2-c2cccc(NS(=O)(=O)c3c(F)cccc3F)c2F)n1 [Compound 41] |
| 6.00 to 7.00 | 7.42 |  | O=S(=O)(Nc1cccc(-c2nc(-c3ccccc3)sc2-c2ccnc(Nc3cccnc3)n2)c1F)c1c(F)cccc1F [Compound 42] |

| pIC50 (LCK protein) | pIC50 (CSK protein) | selectivity over LCK (CSK protein; CSK inhibition over LCK) | Structure (SMILES) |
| --- | --- | --- | --- |
| 6.00 to 7.00 | 7.42 |  | Cc1ccc(-c2nc(-c3cccc(NS(=O)(=O)c4c(F)cccc4F)c3F)c(-c3ccnc(N)n3)s2)nc1 [Compound 43] |
| < 6.00 | 7.36 |  | C[C@H](Nc1nccc(-c2sc(-c3ccccc3)nc2-c2cccc(NS(=O)(=O)c3c(F)cccc3F)c2F)n1)C(N)=O [Compound 44] |
| < 6.00 | 7.56 |  | CNc1nccc(-c2sc(-c3ccccc3)nc2-c2cccc(NS(=O)(=O)c3c(F)cccc3F)c2F)n1 [Compound 46] |
| 6.00 to 7.00 | 7.53 |  | Cc1cncc(-c2nc(-c3cccc(NS(=O)(=O)c4c(F)cccc4F)c3F)c(-c3ccnc(N)n3)s2)c1 [Compound 47] |
|  | 6.46 |  | C[C@@H](Nc1nccc(-c2sc(-c3ccccc3)nc2-c2cccc(NS(=O)(=O)c3c(F)cccc3F)c2F)n1)C(N)=O [Compound 49] |
| < 6.00 | 7.48 |  | CNc1nccc(-c2sc(-c3ccccc3)nc2-c2cccc(NS(=O)(=O)c3c(F)ccc(C)c3F)c2F)n1 [Compound 51] |
| < 6.00 | 7.71 |  | Cc1ccc(F)c(S(=O)(=O)Nc2cccc(-c3nc(-c4cc(F)ccn4)sc3-c3ccnc(N)n3)c2F)c1F [Compound 52] |
| < 6.00 | 7.81 |  | CNc1nccc(-c2sc(-c3cncc(F)c3)nc2-c2cccc(NS(=O)(=O)c3c(F)ccc(C)c3F)c2F)n1 [Compound 53] |
| < 6.00 | 7.03 |  | Cc1ccc(F)c(S(=O)(=O)Nc2cccc(-c3nc(-c4ccc(F)cn4)sc3-c3ccnc(N)n3)c2F)c1F [Compound 54] |
| < 6.00 | 7.52 |  | CNc1nccc(-c2sc(-c3ccc(F)cn3)nc2-c2cccc(NS(=O)(=O)c3c(F)ccc(C)c3F)c2F)n1 [Compound 55] |
| < 6.00 | 7.33 |  | CCNc1nccc(-c2sc(-c3ccc(F)cn3)nc2-c2cccc(NS(=O)(=O)c3c(F)ccc(C)c3F)c2F)n1 [Compound 56] |
| < 6.00 | 7.50 |  | CNc1nccc(-c2sc(-c3ccc(F)cn3)nc2-c2cccc(NS(=O)(=O)c3c(F)ccc(Cl)c3F)c2F)n1 [Compound 58] |
| < 6.00 | 7.16 |  | COC(=O)NCCNc1nccc(-c2sc(-c3ccccc3)nc2-c2cccc(NS(=O)(=O)c3c(F)cccc3F)c2F)n1 [Compound 59] |
| < 6.00 | 6.92 |  | COC(=O)N[C@H](C)CNc1nccc(-c2sc(-c3ccccc3)nc2-c2cccc(NS(=O)(=O)c3c(F)cccc3F)c2F)n1 [Compound 60] |
| < 6.00 | 7.90 |  | Cc1ccc(Cl)c(S(=O)(=O)Nc2cccc(-c3nc(-c4cncc(F)c4)sc3-c3ccnc(N)n3)c2F)c1Cl [Compound 61] |
|  | 5.91 |  | Cn1c(-c2ccccc2)nc(-c2ccnc(N)n2)c1-c1cccc(NS(=O)(=O)c2c(F)cccc2F)c1F [Compound 86] |
|  | 6.02 |  | Cn1c(-c2ccccc2)nc(-c2cccc(NS(=O)(=O)c3c(F)cccc3F)c2F)c1-c1ccnc(N)n1 [Compound 87] |
|  | 6.49 |  | CCn1c(-c2ccccc2)nc(-c2ccnc(N)n2)c1-c1cccc(NS(=O)(=O)c2c(F)cccc2F)c1F [Compound 89] |
|  | 6.98 |  | COc1ccn2c(-c3ccnc(N)n3)c(-c3cccc(NS(=O)(=O)c4c(F)ccc(C)c4F)c3F)nc2c1 [Compound 99] |
|  | ~7.30 | about 10 fold | CC(C)(C)c1nc(-c2cccc(NS(=O)(=O)c3c(F)cccc3F)c2F)c(-c2ccnc(N)n2)s1 [Dabrafenib, reference compound] |
|  | 5.98 |  | Nc1nccc(-c2sc(-c3cccc(N4CCC4)n3)nc2-c2cccc(NS(=O)(=O)c3c(F)cccc3F)c2F)n1 [compound 1] |
|  | < 5.00 |  | O=S(=O)(Nc1cccc(-c2nc(-c3ccccc3)sc2-c2ccnc(NC3CCNCC3)n2)c1F)c1c(F)cccc1F [compound 8] |
|  | < 5.00 |  | CN(C)c1nccc(-c2sc(-c3ccccc3)nc2-c2cccc(NS(=O)(=O)c3c(F)cccc3F)c2F)n1 [compound 37] |
|  | 6.60 |  | Nc1nccc(-c2sc(-c3ccccc3)nc2-c2cccc(NS(=O)(=O)c3ccc4ocnc4c3)c2F)n1 [compound 57] |
|  | < 5.00 |  | CCn1c(-c2ccccc2)nc(-c2cccc(NS(=O)(=O)c3c(F)cccc3F)c2F)c1-c1ccnc(N)n1 [compound 88] |
